Measurements published in ChEMBL document CHEMBL5154826, “Discovery of the Clinical Candidate MAK683: An EED-Directed, Allosteric, and Selective PRC2 Inhibitor for the Treatment of Advanced Malignancies” (J Med Chem, 2022).
In brackets after ≈: the same amount, converted by molar mass.

How the values were obtained:
[1] = Plasma protein binding in mouse at 1 uM measured after 6 hrs LC-MS/MS analysis; assay type: ADME, cell-free; conditions: read-out: PPB (converted)
[2] = Permeability across apical to basolateral side in human Caco-2 cells at 10 uM incubated for 2 hrs by LC/MS/MS analysis; assay type: ADME, cell-based; conditions: Caco-2, read-out: permeability
[3] = Oral bioavailability in Sprague-Dawley rat at 2 mg/kg; assay type: ADME, organism-based; conditions: in vivo
[4] = Volume of distribution at steady state in Sprague-Dawley rat at 2 mg/kg, po or 1 mg/kg, iv after 1 week by LC-MS/MS analysis; assay type: ADME, organism-based; conditions: in vivo, 168 h, time 1 weeks
[5] = target: T1, Alpha-2C adrenergic receptor (Homo sapiens, UniProt P18825); assay: Inhibition of alpha2c adrenergic receptor (unknown origin)
T1 sequence (P18825 whole entry): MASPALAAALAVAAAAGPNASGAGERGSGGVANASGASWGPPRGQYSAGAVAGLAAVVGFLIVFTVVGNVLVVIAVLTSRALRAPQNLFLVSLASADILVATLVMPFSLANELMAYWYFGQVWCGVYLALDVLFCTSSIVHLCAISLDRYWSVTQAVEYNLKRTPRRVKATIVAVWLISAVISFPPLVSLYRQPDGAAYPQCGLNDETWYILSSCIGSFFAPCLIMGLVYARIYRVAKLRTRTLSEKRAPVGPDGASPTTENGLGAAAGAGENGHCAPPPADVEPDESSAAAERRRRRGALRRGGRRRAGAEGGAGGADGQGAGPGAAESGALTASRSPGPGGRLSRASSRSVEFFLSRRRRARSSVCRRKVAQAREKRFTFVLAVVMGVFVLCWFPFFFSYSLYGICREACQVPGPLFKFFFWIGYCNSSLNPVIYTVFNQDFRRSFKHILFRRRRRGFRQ

[6] = Lipophilicity, logD of the compound at pH 7.4 by LC with tandem MS analysis; assay type: physicochemical; conditions: buffer, read-out: logD
[7] = Plasma protein binding in human at 1 uM measured after 6 hrs LC-MS/MS analysis; assay type: ADME, cell-free; conditions: read-out: PPB (converted)
[8] = Plasma protein binding in human assessed as unbound fraction at 1 uM measured after 6 hrs LC-MS/MS analysis; assay type: ADME, cell-free
[9] = Oral biovailability in Beagle dog at 2 mg/kg, po; assay type: ADME, organism-based, Canis lupus familiaris; conditions: in vivo
[10] = High throughput solubility of the compound at pH 7 after 16 to 24 hrs by MS/MS analysis; assay type: physicochemical; conditions: buffer, time 16-24 hrs, read-out: solubility
[11] = Antitumor activity against human Karpas-422 cells xenografted Athymic BALB/c nude mouse assessed as minimum effective dose administered twice a day for 30 days; assay type: functional; conditions: KARPAS-422, 720 h, time 30 day, read-out: MED
[12] = Intrinsic clearance in human hepatocytes measured per 10^6 cells; assay type: ADME, cell-based, Hepatocyte; conditions: read-out: CLH
[13] = Dose normalized Cmax in Sprague-Dawley rat at 2 mg/kg, po or 1 mg/kg, iv after 1 week by LC-MS/MS analysis; assay type: ADME, organism-based; conditions: in vivo, 168 h, time 1 weeks
[14] = target: Cytochrome P450 2C9 (Homo sapiens, UniProt P11712); assay: Inhibition of CYP2C9 in human liver microsomes using diclofenac as substrate incubated for 10 mins in presence of NADPH by LC-MS/MS analysis; assay type: ADME, Microsome
[15] = Dose normalized Cmax in wild type Beagle dog at 2 mg/kg, po or 1 mg/kg, iv after 1 week by LC-MS/MS analysis; assay type: ADME, organism-based, Canis lupus familiaris; conditions: in vivo, 168 h, time 1 weeks
[16] = Metabolic stability in rat microsomes assessed as intrinsic clearance; assay type: ADME, Microsome; conditions: read-out: CLH
[17] = Metabolic stability in mouse microsomes assessed as intrinsic clearance; assay type: ADME, Microsome; conditions: read-out: CLH
[18] = High throughput solubility of the compound in SGF after 16 to 24 hrs by MS/MS analysis; assay type: physicochemical; conditions: time 16-24 hrs
[19] = Plasma protein binding in dog at 1 uM measured after 6 hrs LC-MS/MS analysis; assay type: ADME, cell-free, Canis lupus familiaris; conditions: read-out: PPB (converted)
[20] = High throughput solubility of the compound at pH 1 after 16 to 24 hrs by MS/MS analysis; assay type: physicochemical; conditions: buffer, time 16-24 hrs
[21] = Terminal half life in Sprague-Dawley rat at 2 mg/kg, po or 1 mg/kg, iv after 1 week by LC-MS/MS analysis; assay type: ADME, organism-based; conditions: in vivo, time 1 weeks, read-out: beta t1/2 (converted)
[22] = Intrinsic clearance in dog hepatocytes measured per 10^6 cells; assay type: ADME, cell-based, Canis lupus familiaris, Hepatocyte; conditions: read-out: CLH
[23] = Dose normalized AUC in ICR (CD-1) mouse at 2 mg/kg, po or 1 mg/kg, iv after 1 week by LC-MS/MS analysis; assay type: ADME, organism-based; conditions: in vivo, 168 h, time 1 weeks
[24] = Oral biovailability in ICR (CD-1) mouse at 2 mg/kg, po; assay type: ADME, organism-based; conditions: in vivo
[25] = High throughput solubility of the compound in FaSSIF after 16 to 24 hrs by MS/MS analysis; assay type: physicochemical; conditions: time 16-24 hrs
[26] = Terminal half life in wild type Beagle dog at 2 mg/kg, po or 1 mg/kg, iv after 1 week by LC-MS/MS analysis; assay type: ADME, organism-based, Canis lupus familiaris; conditions: in vivo, time 1 weeks, read-out: beta t1/2 (converted)
[27] = Dissociation constant, pKa of compound; assay type: physicochemical
[28] = Volume of distribution at steady state ICR (CD-1) mouse at 2 mg/kg, po or 1 mg/kg, iv after 1 week by LC-MS/MS analysis; assay type: ADME, organism-based; conditions: in vivo, 168 h, time 1 weeks
[29] = Intrinsic clearance in rat hepatocytes measured per 10^6 cells; assay type: ADME, cell-based, Hepatocyte; conditions: read-out: CLH
[30] = Free plasma concentration in Athymic BALB/c nude mouse xenografted with human Karpas-422 cells at 20 mg/kg, po after 12 hrs by HPLC-MS/MS analysis; assay type: ADME, organism-based; conditions: in vivo
[31] = tested on: KARPAS-422; assay: Antiproliferative activity against human KARPAS-422 cells expressing EZH2 mutant assessed as inhibition of cell growth after 14 days by beckman coulter counting method; assay type: functional; conditions: time 14 day
[32] = Permeability across basolateral to apical side in human Caco-2 cells incubated for 2 hrs by LC/MS/MS analysis; assay type: ADME, cell-based; conditions: read-out: permeability
[33] = Dose normalized AUC in wild type Beagle dog at 2 mg/kg, po or 1 mg/kg, iv after 1 week by LC-MS/MS analysis; assay type: ADME, organism-based, Canis lupus familiaris; conditions: in vivo, 168 h, time 1 weeks
[34] = Plasma clearance in dog; assay type: ADME, cell-free, Canis lupus familiaris
[35] = target: Cytochrome P450 2D6 (Homo sapiens, UniProt P10635); assay: Inhibition of CYP2D6 in human liver microsomes using bufuralol as substrate incubated for 10 mins in presence of NADPH by LC-MS/MS analysis; assay type: ADME, Microsome
[36] = Dose normalized Cmax in ICR (CD-1) mouse at 2 mg/kg, po or 1 mg/kg, iv after 1 week by LC-MS/MS analysis; assay type: ADME, organism-based; conditions: in vivo, 168 h, time 1 weeks
[37] = target: Cytochrome P450 3A4 (Homo sapiens, UniProt P08684); assay: Inhibition of CYP3A4 in human liver microsomes using midazolam as substrate incubated for 10 mins in presence of NADPH by LC-MS/MS analysis; assay type: ADME, Microsome
[38] = Dose normalized AUC in Sprague-Dawley rat at 2 mg/kg, po or 1 mg/kg, iv after 1 week by LC-MS/MS analysis; assay type: ADME, organism-based; conditions: in vivo, 168 h, time 1 weeks
[39] = Metabolic stability in dog microsomes assessed as intrinsic clearance; assay type: ADME, Canis lupus familiaris, Microsome; conditions: read-out: CLH
[40] = Plasma protein binding in rat at 1 uM measured after 6 hrs LC-MS/MS analysis; assay type: ADME, cell-free; conditions: read-out: PPB (converted)
[41] = High throughput solubility of the compound in FeSSIF after 16 to 24 hrs by MS/MS analysis; assay type: physicochemical; conditions: time 16-24 hrs
[42] = Terminal half life in ICR (CD-1) mouse at 2 mg/kg, po or 1 mg/kg, iv after 1 week by LC-MS/MS analysis; assay type: ADME, organism-based; conditions: in vivo, time 1 weeks, read-out: beta t1/2 (converted)
[43] = Plasma clearance in rat; assay type: ADME, cell-free
[44] = Intrinsic clearance in mouse hepatocytes measured per 10^6 cells; assay type: ADME, cell-based, Hepatocyte; conditions: read-out: CLH
[45] = Metabolic stability in human microsomes assessed as intrinsic clearance; assay type: ADME, Microsome; conditions: read-out: CLH
[46] = Volume of distribution at steady state in wild type Beagle dog at 2 mg/kg, po or 1 mg/kg, iv after 1 week by LC-MS/MS analysis; assay type: ADME, organism-based, Canis lupus familiaris; conditions: in vivo, 168 h, time 1 weeks

Cytochrome P450 2D6, sequence (P10635 whole entry): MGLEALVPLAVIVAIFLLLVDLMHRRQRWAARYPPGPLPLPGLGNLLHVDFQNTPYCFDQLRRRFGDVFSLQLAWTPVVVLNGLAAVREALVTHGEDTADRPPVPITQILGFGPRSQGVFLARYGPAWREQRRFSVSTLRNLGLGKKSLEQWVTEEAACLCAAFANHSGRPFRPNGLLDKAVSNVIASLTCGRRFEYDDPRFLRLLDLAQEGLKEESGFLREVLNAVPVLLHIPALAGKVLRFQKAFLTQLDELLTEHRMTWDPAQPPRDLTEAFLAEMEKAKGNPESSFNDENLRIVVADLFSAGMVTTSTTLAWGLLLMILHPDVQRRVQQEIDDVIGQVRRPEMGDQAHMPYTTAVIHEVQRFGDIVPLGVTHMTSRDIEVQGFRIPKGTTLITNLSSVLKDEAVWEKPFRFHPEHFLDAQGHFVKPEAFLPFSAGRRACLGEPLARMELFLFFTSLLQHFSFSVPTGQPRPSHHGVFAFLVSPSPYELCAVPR
Cytochrome P450 3A4, sequence (P08684 whole entry): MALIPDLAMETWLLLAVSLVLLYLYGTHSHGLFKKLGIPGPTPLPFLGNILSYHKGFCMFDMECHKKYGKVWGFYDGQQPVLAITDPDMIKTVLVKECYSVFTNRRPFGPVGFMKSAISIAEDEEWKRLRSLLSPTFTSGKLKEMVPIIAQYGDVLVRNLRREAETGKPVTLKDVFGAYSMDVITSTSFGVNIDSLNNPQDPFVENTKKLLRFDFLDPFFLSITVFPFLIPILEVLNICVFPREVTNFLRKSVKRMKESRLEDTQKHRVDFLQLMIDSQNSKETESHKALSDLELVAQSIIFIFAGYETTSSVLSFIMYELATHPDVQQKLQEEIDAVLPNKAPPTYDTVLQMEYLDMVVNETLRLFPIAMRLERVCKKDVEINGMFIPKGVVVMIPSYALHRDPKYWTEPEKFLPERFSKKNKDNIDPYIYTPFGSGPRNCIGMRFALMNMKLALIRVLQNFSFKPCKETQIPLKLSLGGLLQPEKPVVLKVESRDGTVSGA
Cytochrome P450 2C9, sequence (P11712 whole entry): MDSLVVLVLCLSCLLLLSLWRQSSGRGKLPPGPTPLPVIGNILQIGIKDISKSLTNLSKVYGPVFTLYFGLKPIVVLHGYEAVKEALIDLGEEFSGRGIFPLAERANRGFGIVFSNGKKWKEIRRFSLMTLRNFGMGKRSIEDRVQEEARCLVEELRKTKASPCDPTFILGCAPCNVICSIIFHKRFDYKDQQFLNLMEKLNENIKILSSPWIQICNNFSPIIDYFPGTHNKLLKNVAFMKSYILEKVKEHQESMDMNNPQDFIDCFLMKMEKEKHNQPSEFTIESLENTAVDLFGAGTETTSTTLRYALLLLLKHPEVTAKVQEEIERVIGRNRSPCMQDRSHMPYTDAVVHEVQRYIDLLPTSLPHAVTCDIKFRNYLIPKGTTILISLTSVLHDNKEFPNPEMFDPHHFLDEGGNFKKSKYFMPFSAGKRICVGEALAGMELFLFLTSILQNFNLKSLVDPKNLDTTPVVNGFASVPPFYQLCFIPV

**Q.** For COc1cccc(F)c1CNc1ccc(-c2cnc(C)nc2C)c2nncn12, which fraction unbound at 6 h, 1 µM [1] is on record?
**A.** 0.12

**Q.** And the Papp A→B at 2 h, 10 µM [2]?
**A.** 7.2 ×10⁻⁶ cm/s

**Q.** And the bioavailability [3]?
**A.** 109%

**Q.** And the Vdss [4]?
**A.** 2.4 L/kg

**Q.** What about the IC50 [5] of the same compound?
**A.** 8.7 µM

**Q.** And the logD [6]?
**A.** 3.8

**Q.** What about the fraction unbound at 6 h, 1 µM [7] of the same compound?
**A.** 0.13

**Q.** And the fraction unbound at 6 h, 1 µM [8]?
**A.** 0.13

**Q.** And the bioavailability [9]?
**A.** 68%

**Q.** And the solubility [10]?
**A.** 2.6 µM (≈ 0.984 µg/mL)

**Q.** What about the minimal effective dose [11] of the same compound?
**A.** 7 mg/kg

**Q.** What about the hepatocyte CLint [12] of the same compound?
**A.** < 2.3 µL/min/1e6 cells

**Q.** What about the Cmax/dose [13] of the same compound?
**A.** 387 nM

**Q.** What about the IC50 [14] of the same compound?
**A.** > 20 µM

**Q.** What about the Cmax/dose [15] of the same compound?
**A.** 590 nM

**Q.** What about the microsomal CLint [16] of the same compound?
**A.** 11 µL/min/mg

**Q.** What about the microsomal CLint [17] of the same compound?
**A.** 21 µL/min/mg

**Q.** And the solubility [18]?
**A.** 173 µM (≈ 65.5 µg/mL)

**Q.** What about the fraction unbound at 6 h, 1 µM [19] of the same compound?
**A.** 0.15

**Q.** What about the solubility [20] of the same compound?
**A.** > 13000 µM

**Q.** What about the half-life [21] of the same compound?
**A.** 1.1 h

**Q.** What about the hepatocyte CLint [22] of the same compound?
**A.** < 2.3 µL/min/1e6 cells

**Q.** And the AUC/dose [23]?
**A.** 1032 nM·h

**Q.** And the bioavailability [24]?
**A.** 132%

**Q.** And the solubility [25]?
**A.** 34 µM (≈ 12.9 µg/mL)

**Q.** What about the half-life [26] of the same compound?
**A.** 2 h

**Q.** And the pKa [27]?
**A.** 3.3

**Q.** What about the Vdss [28] of the same compound?
**A.** 7.5 L/kg

**Q.** And the hepatocyte CLint [29]?
**A.** 3.2 µL/min/1e6 cells

**Q.** What about the “Cp(f)” value [30] of the same compound?
**A.** 32 nM

**Q.** What about the GI50 ([31]; Homo sapiens, KARPAS-422, 336 h) of the same compound?
**A.** 6.7 µM

**Q.** And the GI90 [31]?
**A.** 32 µM

**Q.** What about the Papp B→A at 2 h [32] of the same compound?
**A.** 42 ×10⁻⁶ cm/s

**Q.** What about the AUC/dose [33] of the same compound?
**A.** 2392 nM·h

**Q.** What about the clearance [34] of the same compound?
**A.** 13 mL/min/kg

**Q.** And the IC50 [35]?
**A.** > 20 µM

**Q.** And the Cmax/dose [36]?
**A.** 288 nM

**Q.** What about the IC50 [37] of the same compound?
**A.** > 20 µM

**Q.** And the AUC/dose [38]?
**A.** 2127 nM·h

**Q.** And the microsomal CLint [39]?
**A.** 10 µL/min/mg

**Q.** What about the fraction unbound at 6 h, 1 µM [40] of the same compound?
**A.** 0.1

**Q.** And the solubility [41]?
**A.** 86 µM (≈ 32.5 µg/mL)

**Q.** What about the half-life [42] of the same compound?
**A.** 2.2 h

**Q.** What about the clearance [43] of the same compound?
**A.** 22 mL/min/kg

**Q.** And the hepatocyte CLint [44]?
**A.** 3.6 µL/min/1e6 cells

**Q.** And the microsomal CLint [45]?
**A.** 9 µL/min/mg

**Q.** What about the Vdss [46] of the same compound?
**A.** 2.1 L/kg
